# Experimental data taken from PubChem BioAssay (NCI).
#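 Cultured in 96-well plates, cells were exposed to test compound for 48 hours across five concentrations. GI50: concentration for 50% inhibition of growth. The concentration for full growth arrest is given as TGI.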
# Tests used:
# Experiment in all cases: NCI anticancer screen, dose series, 48 h
# ACHN renal = system: ACHN renal
# HCC-2998 colon = system: HCC-2998 colon
# MALME-3M melanoma = system: MALME-3M melanoma
# MCF7 breast = system: MCF7 breast
# MDA-MB-435 = system: MDA-MB-435
# NCI-H522 lung = system: NCI-H522 lung
# OVCAR-8 ovarian = system: OVCAR-8 ovarian
# PC-3 prostate = system: PC-3 prostate
# SF-268 CNS = system: SF-268 CNS
# T-47D breast = system: T-47D breast
# UACC-257 melanoma = system: UACC-257 melanoma
# UACC-62 melanoma = system: UACC-62 melanoma
# UO-31 renal = system: UO-31 renal
Structure (SMILES),TGI (ACHN renal) [µM],TGI (HCC-2998 colon) [µM],TGI (MALME-3M melanoma) [µM],TGI (MCF7 breast) [µM],TGI (MDA-MB-435) [µM],TGI (NCI-H522 lung) [µM],TGI (OVCAR-8 ovarian) [µM],TGI (PC-3 prostate) [µM],TGI (SF-268 CNS) [µM],TGI (T-47D breast) [µM],TGI (UACC-257 melanoma) [µM],TGI (UACC-62 melanoma) [µM],TGI (UO-31 renal) [µM],GI50 (MCF7 breast) [µM],GI50 (MDA-MB-435) [µM],GI50 (OVCAR-8 ovarian) [µM],GI50 (PC-3 prostate) [µM],GI50 (T-47D breast) [µM],GI50 (UACC-257 melanoma) [µM],GI50 (UACC-62 melanoma) [µM]
CC(=O)OC1CC(OC2C(O)CC(OC3C(O)CC(OC4CCC5(C)C(CCC6C5CCC5(C)C(C7=CC(=O)OC7)CCC65O)C4)OC3C)OC2C)OC(C)C1OC1OC(CO)C(O)C(O)C1O (stereo not drawn),0.0942,0.29,0.112,0.536,0.172,0.0291,0.139,0.159,0.129,0.344,0.422,0.334,0.13,,,,,,,
COCCNCc1ccc(-c2cc3nccc(Oc4ccc(NC(=O)C5(C(=O)Nc6ccc(F)cc6)CC5)cc4F)c3s2)nc1,,,,3.58,2.68,,5.13,5,,6.29,3.33,4.66,,1.22,1.31,2.11,1.81,2.01,1.59,1.89
CO/C=C1\OC(=O)C=C1OC,,> 100,> 100,> 100,,> 100,> 100,,> 100,,> 100,> 100,> 100,,,,,,,
O=S(O)CCCSSSCCCS(=O)O,> 100,> 100,> 100,,,> 100,,,> 100,,> 100,> 100,> 100,,,,,,,
Cc1ccc(Nc2nc(=O)c3c([nH]c4ccccc43)s2)cc1,35.4,,26.8,,7.4,32.4,28.7,28.3,35.6,43.7,31.5,21,7.32,,,,,,,
CC1(C)N=C(c2ccccc2)SC12S[C@@H]1CCCC[C@H]1S2,> 100,,> 100,> 100,> 100,> 100,> 100,> 100,> 100,> 100,> 100,> 100,> 100,,,,,,,
COc1cc(NCCC(=O)O)c2ncccc2c1,> 100,,> 100,,> 100,> 100,> 100,> 100,> 100,> 100,> 100,> 100,> 100,,,,,,,
c1ccc2c(c1)SCCc1cn[nH]c1-2,,> 100,> 100,> 100,,> 100,> 100,,> 100,,> 100,> 100,> 100,,,,,,,
NNC(=O)CCc1ccc2ccc3ccccc3c2c1,> 100,> 100,> 100,> 100,> 100,> 100,> 100,> 100,> 100,> 100,> 100,> 100,> 100,,,,,,,
CN(c1ccccc1)c1nc(=[N+]2CCCC2)ss1,> 100,> 100,> 100,,,,> 100,,> 100,,> 100,> 100,> 100,,,,,,,
